For 30 compounds, EC50 results are on record in patent publication US11155567B2, “Sting agonist compounds and methods of use” (Mersana Therapeutics, Inc., priority 2019, dated 2021).

pEC50: −log10 of the molar value.

Holding throughout (assay type): cell-based
The target of one test is T1, Human STING (HAQ allele) (Homo sapiens, UniProt Q86WV6, G230A/H232R/R293Q/R71H).
T1 construct: THP1-Dual™ Human Monocytes cells with the homozygous HAQ allele; host or cells: THP1-Dual human monocytes
Description: IRF3 reporter induction in THP1-Dual Human Monocytes cells (homozygous HAQ STING allele). The following applies: IRF3 reporter (secreted luciferase), 24 hours incubation. How it is done: (§1) THP1-Dual™ Human Monocytes cells with the homozygous HAQ allele, known to be a natural variant allele of STING occurring in 20% of the human population (Invivogen) have been engineered with two independent gene reporter systems: a secreted embryonic alkaline phosphatase (SEAP) reporter gene for NFkB activity, and secreted luciferase reporter for […] (IRF3) activity were used. 4×10^5 THP1-Dual™ cells were incubated with test Compounds in a 5-fold titration steps from 1 to 0.0128 μM in RPMI media with 10% FBS, for 24 hours at 37° C. with 5% CO2. Cell culture supernatants (20 μl) from each incubated sample was added to resuspended QUANTI-Blue™ Solution (Invivogen, 180 μl) in each well of a flat-bottom 96-well plate, then incubated for 2 h. NFkB levels were evaluated using a spectrophotometer at 620-655 nm.
(§2) To evaluate IRF3 reporter levels, cell culture supernatant (20 μl) from each incubated sample was added to QUANTI-Luc™ assay solution (Invivogen, 50 μl), and the luminescence was measured with a SpectraMax M3 spectrophotometer (Molecular Devices).
(§3) The EC50 value was determined from the dose response curve based on reference Compounds. Table 2a provides the results for IRF3 reporter induction THP1-Dual™ Human Monocytes cells and Table 2b provides the results for IRF3 reporter induction in THP1-Dual™ KI-hSTING-H232 Cells and THP1-Dual™ KI-hSTING-R232 Cells (“A” means <30 nM; “B” means ≥30 nM and <100 nM; “C” means ≥100 nM).

In test [1] the target is T2, R232H human STING variant (Homo sapiens, UniProt Q86WV6).
T2 construct: host or cells: THP1-Dual KI-hSTING-H232 cells, generated from THP1-Dual KO-STING cells
The experiment in a line: IRF3 reporter induction in THP1-Dual KI-hSTING-H232 Cells. The following applies: THP1-Dual KI-hSTING-H232 Cells (R232H Haplotype). As for the experimental part:
as §1, §2
(§4) NFkB and IRF3 reporter levels were also determined for THP1-Dual™ KI-hSTING-H232 Cells and THP1-Dual™ KI-hSTING-R232 Cells. THP1-Dual™ KI-hSTING-H232 Cells (R232H Haplotype) were generated from THP1-Dual™ KO-STING cells by knockin of the intronless coding sequence (from the ATG to TGA) of the R232H human STING variant (Invivogen). R232H has been identified as a natural variant allele of STING occurring in ˜14% of the human population. THP1-Dual™ KI-hSTING-R232 Cells (R232 Haplotype) were generated from THP1-Dual™ KO-STING cells by knockin of the intronless coding sequence (from the ATG to the TGA) of the R232 hSTING variant. Genomic studies indicate that this variant, which contains an arginine at position 232 (R232), is the most prevalent variant with an occurrence (homozygous allele) of ˜45-58% in the human population.
as §3

The target in a further test is T3, R232 hSTING variant (Homo sapiens, UniProt Q86WV6, H232R).
T3 construct: expressed in transfected cells; host or cells: THP1-Dual KI-hSTING-R232 cells, generated from THP1-Dual KO-STING cells
The experiment in a line: IRF3 reporter induction in THP1-Dual KI-hSTING-R232 Cells. The following applies: THP1-Dual KI-hSTING-R232 Cells (R232 Haplotype). As for the experimental part:
as §1, §2, §4, §3

The target in the next test is T4, Human STING (Homo sapiens, UniProt Q86WV6, G230A/H232R/R293Q/R71H).
T4 construct: host or cells: THP1-Dual cells, digitonin-permeabilized
The experiment in a line: Activation of human STING signaling in permeabilized THP1 cells, IRF3 induction. The following applies: THP1-Dual cells permeabilized with digitonin buffer 30 minutes on ice, then 24 h in RPMI media. How it is done: as §2
4×10^5 THP1-Dual™ cells (NF-κB-SEAP and IRF-Lucia luciferase Reporter Monocytes, Invivogen) were incubated with test Compounds in a 5-fold titration steps from […] in permeabilized buffer (50 mM HEPES pH 7.0, 100 mM KCl, 3 mM MgCl2, 85 mM sucrose, 0.2% BSA, 1 mM ATP, 0.1 mM GTP, 0.1 mM TTP, 1 μg/ml digitonin) for 30 minutes on ice. Cells were then washed and incubated in a fresh RPMI media with 10% FBS at 37° C. with 5% CO2 for 24 h. Cell culture supernatants from each sample were collected and NFkB and IRF3 were evaluated as above. Table 3 provides the results for IRF3 induction (“A” means <1 μM; “B” means ≥1 μM and <50 μM; “C” means ≥50 μM).

T3 sequence (Q86WV6 whole entry H232R): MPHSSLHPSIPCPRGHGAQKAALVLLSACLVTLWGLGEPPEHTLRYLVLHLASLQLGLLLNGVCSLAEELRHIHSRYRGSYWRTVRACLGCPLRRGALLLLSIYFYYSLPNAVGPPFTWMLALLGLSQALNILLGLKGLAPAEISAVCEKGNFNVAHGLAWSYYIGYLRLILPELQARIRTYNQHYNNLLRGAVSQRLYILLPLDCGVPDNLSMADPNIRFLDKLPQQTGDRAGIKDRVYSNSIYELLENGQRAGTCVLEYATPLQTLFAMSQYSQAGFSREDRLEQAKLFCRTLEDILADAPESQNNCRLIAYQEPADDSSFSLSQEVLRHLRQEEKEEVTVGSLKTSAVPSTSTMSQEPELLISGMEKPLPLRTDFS
T2 sequence (Q86WV6 whole entry, stated change not applied): as the sequence (Q86WV6 whole entry H232R) above, with R232H counted along it
T4 sequence (Q86WV6 whole entry R71H/G230A/H232R/R293Q): as the sequence (Q86WV6 whole entry H232R) above, with R71H, G230A, R293Q counted along it
T1 sequence (Q86WV6 whole entry R71H/G230A/H232R/R293Q): as the sequence (Q86WV6 whole entry H232R) above, with R71H, G230A, R293Q counted along it

For the compound `CCc1nc(C)oc1C(=O)Nc1nc2cc(C(N)=O)cc(OC)c2n1C/C=C/Cn1c(NC(=O)c2oc(C)nc2CC)nc2cc(C(N)=O)cc(OCCCO)c21` [compound 9], the pEC50 (commonly the EC50 on a negative log10 scale, so that one unit is a factor of ten) is 7.00 to 7.52 on Human STING (HAQ allele), above 7.52 in test [1], above 7.52 at R232 hSTING variant and above 6.00 at Human STING.

In the case of `CCc1nc(C)oc1C(=O)Nc1nc2cc(C(N)=O)cc(OC)c2n1C/C=C/Cn1c(NC(=O)c2oc(C)nc2CC)nc2cc(C(N)=O)cc(OCCCN)c21` [compound 18], the pEC50 at Human STING (HAQ allele) is 7.00 to 7.52; at Human STING, above 6.00.

On Human STING, `CCc1nc(C)sc1C(=O)Nc1nc2cc(C(N)=O)cc(OCCCO)c2n1C/C=C/Cn1c(NC(=O)c2cc(C)nn2CC)nc2cc(C(N)=O)cc(OC)c21` [compound 38] showed a pEC50 above 6.00.

As to `CCc1nn(C)cc1C(=O)Nc1nc2cc(C(N)=O)cc(OCCCO)c2n1C/C=C/Cn1c(NC(=O)c2cc(C)nn2CC)nc2cc(C(N)=O)cc(OC)c21` [compound 39], the pEC50 on Human STING is above 6.00.

Consider `CCc1nc(C)oc1C(=O)Nc1nc2cc(C(N)=O)cc(OC)c2n1C/C=C/Cn1c(NC(=O)c2sc(C)nc2CC)nc2cc(C(N)=O)cc(OCCCO)c21` [compound 40], for which the pEC50 at Human STING is above 6.00.

As to `CCc1nc(C)n(C)c1C(=O)Nc1nc2cc(C(N)=O)cc(OCCCO)c2n1C/C=C/Cn1c(NC(=O)c2cc(C)nn2CC)nc2cc(C(N)=O)cc(OC)c21` [compound 41], the pEC50 at Human STING is at most 4.30.

Consider `CCc1nc(C)oc1C(=O)Nc1nc2cc(C(N)=O)cc(OC)c2n1C/C=C/Cn1c(NC(=O)c2cc(C)nn2CC)nc2cc(C(N)=O)cc(OCCCO)c21` [compound 43], for which the pEC50 at Human STING (HAQ allele) is above 7.52; on Human STING, above 6.00.

On to `CCc1nc(C)oc1C(=O)Nc1nc2cc(C(N)=O)cc(OCCCO)c2n1C/C=C/Cn1c(NC(=O)c2cc(C)nn2CC)nc2cc(C(N)=O)ccc21` [compound 51], for which, at Human STING, the pEC50 was above 6.00.

On to `CCc1nc(C)sc1C(=O)Nc1nc2cc(C(N)=O)cc(OCCCO)c2n1C/C=C/Cn1c(NC(=O)c2cc(C)nn2CC)nc2cc(C(N)=O)ccc21` [compound 52], for which, at Human STING, the negative-log EC50 (pEC50) was above 6.00.

`CCc1nn(C)cc1C(=O)Nc1nc2cc(C(N)=O)cc(OCCCO)c2n1C/C=C/Cn1c(NC(=O)c2cc(C)nn2CC)nc2cc(C(N)=O)ccc21` [compound 53]: the figures for the pEC50 on Human STING (HAQ allele) and at Human STING were at most 7.00 and above 6.00, respectively.

On to `CCc1nc(C)oc1C(=O)/N=c1\sc2cc(C(N)=O)cc(OC)c2n1C/C=C/Cn1c(NC(=O)c2oc(C)nc2CC)nc2cc(C(N)=O)cc(OCCCO)c21` [compound 63], for which the pEC50 is at most 7.00 at Human STING (HAQ allele), above 7.52 in test [1], above 7.52 at R232 hSTING variant and above 6.00 at Human STING.

On to `CCc1ncoc1C(=O)/N=c1\sc2cc(C(N)=O)cc(OC)c2n1C/C=C/Cn1c(NC(=O)c2ocnc2CC)nc2cc(C(N)=O)cc(OCCCO)c21` [compound 64], for which, on Human STING, the pEC50 was at most 4.30.

For `CCn1nc(C)cc1C(=O)/N=c1\sc2cc(C(N)=O)cc(OC)c2n1C/C=C/Cn1c(NC(=O)c2cc(C)nn2CC)nc2cc(C(N)=O)cc(OCCCO)c21` [compound 65], the pEC50 was above 7.52 on Human STING (HAQ allele) and above 6.00 on Human STING.

Regarding `CCc1nc(C)oc1C(=O)/N=c1\sc2cc(C(N)=O)cc(OC)c2n1C/C=C/Cn1c(NC(=O)c2oc(C)nc2CC)nc2cc(C(N)=O)cc(OCCCC(=O)O)c21` [compound 66], the pEC50 at Human STING (HAQ allele) was at most 7.00; in test [1], at most 7.00; at R232 hSTING variant, above 7.52; at Human STING it was above 6.00.

`CCn1nc(C)cc1C(=O)/N=c1\sc2cc(C(N)=O)cc(OC)c2n1C/C=C/Cn1c(NC(=O)c2cc(C)nn2CC)nc2cc(C(N)=O)cc(OCCCN)c21` [compound 67] showed a pEC50 at Human STING above 6.00.

For `CCc1nc(C)oc1C(=O)Nc1nc2cc(C(N)=O)cc(OCCCO)c2n1C/C=C/Cn1/c(=N/C(=O)c2cc(C)nn2CC)sc2cc(C(N)=O)cc(OC)c21` [compound 69], the pEC50 is at most 7.00 at Human STING (HAQ allele), above 7.52 in test [1] and above 7.52 on R232 hSTING variant.

With `CCc1nc(C)oc1C(=O)/N=c1\sc2cc(C(N)=O)cc(OC)c2n1C/C=C/Cn1c(NC(=O)c2sc(C)nc2CC)nc2cc(C(N)=O)cc(OCCCO)c21` [compound 70], the pEC50 at Human STING was at most 4.30.

Turning to `CCn1nc(C)cc1C(=O)/N=c1\sc2cc(C(N)=O)cc(OC)c2n1C/C=C/Cn1c(NC(=O)c2ncnn2C(C)C)nc2cc(C(N)=O)cc(OCCCO)c21` [compound 71], the pEC50 on Human STING is 4.30 to 6.00.

At Human STING, `CCn1nc(C)cc1C(=O)/N=c1\sc2cc(C(N)=O)cc(OC)c2n1C/C=C/Cn1c(NC(=O)C2=C(C)OCC2)nc2cc(C(N)=O)cc(OCCCO)c21` [compound 75] had a pEC50 of at most 4.30.

At Human STING, `CCc1nc(C)oc1C(=O)Nc1nc2cc(C(N)=O)cc(OCCCO)c2n1C/C=C/Cn1/c(=N/C(=O)c2sc(C)nc2CC)sc2cc(C(N)=O)cc(OC)c21` [compound 76] gave a pEC50 above 6.00.

Consider `CCn1nc(C)cc1C(=O)Nc1nc2cc(C(N)=O)cnc2n1C/C=C/Cn1c(NC(=O)c2cc(C)nn2CC)nc2cc(C(N)=O)cnc21` [compound 84], for which the pEC50 on Human STING is above 6.00.

With `CCc1nc(C)oc1C(=O)Nc1nc2cc(C(N)=O)cnc2n1C/C=C/Cn1c(NC(=O)c2oc(C)nc2CC)nc2cc(C(N)=O)cnc21` [compound 85], at Human STING, the pEC50 was 4.30 to 6.00.

Regarding `CCn1nc(C)cc1C(=O)Nc1nc2cc(C(N)=O)cnc2n1C/C=C/Cn1c(NC(=O)c2cc(C)nn2CC)nc2cc(C(N)=O)cc(Br)c21` [compound 89], the pEC50 at Human STING was above 6.00.

At Human STING, `CCc1nc(C)oc1C(=O)Nc1nc2cc(C(N)=O)cnc2n1C/C=C/Cn1c(NC(=O)c2oc(C)nc2CC)nc2cc(C(N)=O)cc(Br)c21` [compound 90] gave a pEC50 above 6.00.

For `CCn1nc(C)cc1C(=O)Nc1nc2cc(C(N)=O)cnc2n1C/C=C/Cn1c(NC(=O)c2cc(C)nn2CC)nc2cc(C(N)=O)cc(OCCCO)c21` [compound 94], the pEC50 at Human STING was above 6.00.

Regarding `CCc1nc(C)oc1C(=O)Nc1nc2cc(C(N)=O)cnc2n1C/C=C/Cn1c(NC(=O)c2oc(C)nc2CC)nc2cc(C(N)=O)cc(OCCCO)c21` [compound 95], the pEC50 on Human STING (HAQ allele) is 7.00 to 7.52; in test [1], above 7.52; at R232 hSTING variant it was above 7.52; on Human STING, above 6.00.

As to `CCc1nc(C)oc1C(=O)Nc1nc2cc(C(N)=O)cnc2n1C/C=C/Cn1c(NC(=O)c2oc(C)nc2CC)nc2cc(C(N)=O)cc(OCCCN)c21` [compound 96], the pEC50 at Human STING was above 6.00.

Take `CCc1nc(C)oc1C(=O)Nc1nc2cc(C(N)=O)cnc2n1C/C=C/Cn1c(NC(=O)c2oc(C)nc2CC)nc2cc(C(N)=O)cc(OCCCC(=O)O)c21` [compound 97]: the pEC50 was at most 7.00 at Human STING (HAQ allele) and above 6.00 on Human STING.

For the compound `CCn1nc(C)cc1C(=O)/N=c1\sc2cc(C(N)=O)cnc2n1C/C=C/Cn1c(NC(=O)c2cc(C)nn2CC)nc2cc(C(N)=O)cc(OCCCO)c21` [compound 110], the pEC50 on Human STING is above 6.00.

For `CCc1nc(C)oc1C(=O)/N=c1\sc2nc(C(N)=O)cnc2n1C/C=C/Cn1c(NC(=O)c2oc(C)nc2CC)nc2cc(C(N)=O)cc(OCCCO)c21` [compound 167], the values for the pEC50 (at Human STING (HAQ allele); in test [1]; at R232 hSTING variant) were at most 7.00, 7.00 to 7.52 and 7.00 to 7.52, respectively.
